Data taken from patent US12305171B2, “Compositions and methods for treating cancer” (bioAffinity Technologies, Inc., priority 2018, dated 2025).

Assays:
Assay in all cases: lentiviral shRNA knockdown of CD320 and LRP2, cell growth observation
Format in all cases: cell-based
Set-up in all cases: key: +++: cells unaffected compared to shSCR (control); ++: cells modestly affected compared to shSCR (control); +: cells significantly affected compared to shSCR (control); 0: vast majority of cells killed compared to shSCR (control)
GM05659 fibroblasts = details: GM05659, normal cells
Description: (§1) Mechanistic investigations into the selectivity of porphyrin uptake by cancer cells led to several nonobvious compounds and methods of using the compound(s). It was discovered that the knockdown of the expression of either CD320 gene or LRP2 gene or the simultaneous knockdown of the expression of CD320 gene and LRP2 gene caused cell death or inhibition of cell growth in a panel of lung cancer cell lines, compared to normal fibroblasts. The experimental outline is illustrated in FIG. 1. In these experiments, cells were plated on day 0. The next day (day 1), virus particles encoding short hairpin RNAs (shRNAs) directed to the CD320 gene and the LRP2 gene or an irrelevant shRNA control were added to the cell culture together with protamine sulfate, a reagent that facilitates cell entry of the virus particles.
(§2) FIG. 1 illustrates an experimental design for knocking down CD320 and LRP2 in a cell. Cells were plated on day 0. The next day (day 1), virus particles encoding short hairpin RNAs (shRNAs) directed at the CD320 and LRP2 mRNA or a non-targeting shRNA control were added to the cell culture together with protamine sulfate, a reagent that facilitates cell entry of the virus particles. […] Each shRNA coding sequence was also combined with a unique drug resistance gene, which would allow for selecting those cells that had taken up the shRNA; cells that had not taken up the shRNA would not survive. On day 2, drug selection was started. On day 3, the cells were harvested and plated in a new dish. Only the cells with a drug resistance gene, i.e., those cells that had taken up shRNA virus particles would survive this re-plating procedure. From day 4 on, each culture was closely observed for cell growth. Cells infected with the non-targeting negative control shRNA continued growing—data not shown.
FIGS. 2 A-C illustrates sensitivity of cancer cell lines to knockdown of CD320 and LRP2. […] The fields of cells in FIG. 2A were counted and quantified and illustrated in FIG. 2B. […]

T98G = details: glioblastoma
Description: as §1, §2
(§3) The Each vector that carried a shRNA coding sequence also contained a unique drug resistance gene which would allow for selecting those cells that had taken up the shRNA as those cells that had not taken up the shRNA having the unique drug resistance gene would not survive. On day 2, drug selection was started. On day 3, the cells were harvested and plated in a new dish. Only the cells with a drug resistance gene, i.e., those cells that had taken up shRNA virus particles would survive this re-plating procedure. From day 4 on, each culture was closely observed for cell growth. The cells that were infected with the irrelevant control shRNA kept on growing as expected (since the shRNA was essentially a non-functional shRNA)—data not shown.
(§4) Additional cancer cell lines were also treated with the compounds described herein to determine whether cancer cell lines were more susceptible to growth inhibition and toxicity as compared to non-cancer cells of the same origin. Cell lines from skin, prostate, and brain cancers were screened similarly to the experimental outline in FIG. 1. Table 3 summarizes the effects of simultaneous knockdown of CD320 and LRP2 in cancer and normal cells.

DU-145 = details: DU-145, prostate cells
Description: as §1, §2, §3, §4

H358 = details: H358, lung cells
Description: as §1, §2, §3, §4

H1993 = details: H1993, lung cells
Description: as §1, §2, §3, §4

U251MG = details: glioblastoma
Description: as §1, §2, §3, §4

PC3 = details: PC3, prostate cells
Description: as §1, §2, §3, §4

U343 = details: U343, glioblastoma
Description: as §1, §2, §3, §4

A172 = details: A172, glioblastoma
Description: as §1, §2, §3, §4

GM00701 = details: GM00701, normal cells
Description: as §1, §2, §3, §4

LncAP = details: prostate cells
Description: as §1, §2, §3, §4

H157 = details: H157, lung cells
Description: as §1, §2, §3, §4

HCC15 = details: HCC15, lung cells
Description: as §1, §2, §3, §4

MDA-MB-4353 = details: MDA-MB-4353, melanoma cells
Description: as §1, §2, §3, §4

shLRP2: lentiviral shRNA targeting LRP2 (NM_004525.2), location 2800-2820; SEQ ID NO. 945/946 (sense CCTGTAATAAACACTACTCTT; antisense AAGAGTAGTGTTTATTACAGG) [lentiviral shRNA targeting LRP2 (NM_004525.2), location 2800-2820; 945/946]
cells affected compared to shSCR (control) (GM05659 fibroblasts): +++
cells affected compared to shSCR (control) (T98G): ++
cells affected compared to shSCR (control) (DU-145): +
cells affected compared to shSCR (control) (H358): ++
cells affected compared to shSCR (control) (H1993): ++
cells affected compared to shSCR (control) (U251MG): ++
cells affected compared to shSCR (control) (PC3): ++
cells affected compared to shSCR (control) (U343): ++
cells affected compared to shSCR (control) (A172): +
cells affected compared to shSCR (control) (GM00701): +++
cells affected compared to shSCR (control) (LncAP): ++
cells affected compared to shSCR (control) (H157): ++
cells affected compared to shSCR (control) (HCC15): +
cells affected compared to shSCR (control) (MDA-MB-4353): +

shCD320: lentiviral shRNA targeting CD320 (NM_016579.3), location 1006-1026; SEQ ID NO. 943/944 (sense CCCTCAGAGACCTGAGCTCTT; antisense AAGAGCTCAGGTCTCTGAGGG) [lentiviral shRNA targeting CD320 (NM_016579.3), location 1006-1026; 943/944]
cells affected compared to shSCR (control) (GM05659 fibroblasts): +++
cells affected compared to shSCR (control) (T98G): +++
cells affected compared to shSCR (control) (DU-145): ++
cells affected compared to shSCR (control) (H358): ++
cells affected compared to shSCR (control) (H1993): ++
cells affected compared to shSCR (control) (U251MG): +
cells affected compared to shSCR (control) (PC3): +++
cells affected compared to shSCR (control) (U343): +++
cells affected compared to shSCR (control) (A172): +
cells affected compared to shSCR (control) (GM00701): ++
cells affected compared to shSCR (control) (LncAP): ++
cells affected compared to shSCR (control) (H157): +
cells affected compared to shSCR (control) (HCC15): +
cells affected compared to shSCR (control) (MDA-MB-4353): ++

shSCR: non-targeting control shRNA in lentiviral vector; SEQ ID NO. 941/942 [reference compound]
cells affected compared to shSCR (control) (GM05659 fibroblasts): +++
cells affected compared to shSCR (control) (T98G): +++
cells affected compared to shSCR (control) (DU-145): +++
cells affected compared to shSCR (control) (H358): +++
cells affected compared to shSCR (control) (H1993): +++
cells affected compared to shSCR (control) (U251MG): +++
cells affected compared to shSCR (control) (PC3): +++
cells affected compared to shSCR (control) (U343): +++
cells affected compared to shSCR (control) (A172): +++
cells affected compared to shSCR (control) (GM00701): +++
cells affected compared to shSCR (control) (LncAP): +++
cells affected compared to shSCR (control) (H157): +++
cells affected compared to shSCR (control) (HCC15): +++
cells affected compared to shSCR (control) (MDA-MB-4353): +++
